For data set [1] the following is noted: cited from earlier work.
Data set [2] in a line: equilibrium solubility of crystalline Cur in excipient solutions. It is filed as physicochemical. The settings on record: pure water, pH 7.0, 37 °C, filtered 0.22 μm, read-out: equilibrium solubility (Cur con.). Here is the method:
Excess crystalline Cur was suspended in each solution, vortexed (1 min), sonicated (10 min), and incubated (37 °C, 24 h). After incubation, suspensions were filtered (0.22 μm), and Cur concentration in the filtrate was quantified using HPLC/UV-Vis (HPLC/UV-Vis Method section). All experiments were performed in quadruplicate (n = 4).
Cur content in in vitro dissolution samples was quantified using a Waters 2695 Alliance HPLC system (Waters Corporation, Milford, MA, USA) equipped with a Waters 2998 photodiode array (PDA) detector. Separation was performed on an XBridge® C18 column (4.6 × 250 mm, 5.0 μm; Waters) maintained at 25 °C. The mobile phase, composed of water and methanol (80:20, v/v), was delivered isocratically at a flow rate of 1.0 mL/min. The injection volume was 10 μL, and detection was performed at 430 nm, and Cur eluted at approximately 4.80 min. […] All data were acquired in triplicate (n = 3) and processed using Empower®3 Software (Waters).

A short description of data set [3]: in vivo pharmacokinetic study in rats. Further details: species or system Sprague-Dawley (SD) rats. The settings on record: rat; for plasma concentration of Cur, individual animals: Rat1-Rat5, listed as Intravenous Cur. Here is the method: Male Sprague-Dawley (SD) rats (200 ± 20 g) were supplied by SPF Biotechnology Co., Ltd. (Beijing, China) and housed under standard laboratory conditions throughout the study. All animals were housed in a controlled environment (22 ± 2 °C, 55 ± 10% humidity) under a 12/12 h light/dark cycle, with free access to a standard laboratory rodent diet and water. A 12 h fasting period was implemented prior to the experiment, with water permitted ad libitum. All animal procedures were performed in strict accordance with protocols approved by the Biological and Medical Ethics Committee of Minzu University of China.
After fasting for 12 h (with free access to water), SD rats (n = 25) were randomly divided into five groups (n = 5 per group). Group 1: crystalline Cur (i.v., dissolved in saline with 5% DMSO). Group 2: crystalline Cur (p.o., suspended in 0.5% CMC-Na). Group 3: Cur/P188 ASD (1:8, w/w; p.o.). Group 4: Cur/P188/TW80 ASD (1:8:1, w/w/w; p.o.). Group 5: Cur/P188/SLS ASD (1:8:1, w/w/w; p.o.). Group 1 received the formulation via tail vein injection, while Groups 2–5 were suspended in water (pH 7.0) and administered orally by gavage at a Cur-equivalent dose of 40 mg/kg. Blood samples (0.2 mL) were collected from each rat at 4, 7, 10, 20, and 30 min, and 1, 2, 4, and 24 h post-dosing. Plasma was separated by centrifugation (5000 rpm, 5 min, 4 °C) and stored at −80 °C until analysis.
Cur was extracted from 50 μL of plasma using 600 μL of ethyl acetate and quantified by LC-MS/MS, with diclofenac sodium (20 μL, 200 ng/mL) serving as the internal standard. Blank plasma was obtained from a separate control group (n = 5) that received water only. Analysis of these blank samples confirmed the absence of significant matrix interference, thereby validating the analytical method.
Cur quantification in cellular and rat plasma samples was carried out using a SCIEX QTRAP® 5500 LC-MS/MS system coupled with a SCIEX ExionLC^TM AC system (AB SCIEX, Framingham, MA, USA).
Separation was achieved on an Acquity UPLC® BEH C18 column (100 × 2.1 mm, 1.7 μm; Waters) maintained at 40 °C. The mobile phase consisted of (A) 0.1% formic acid in water and (B) acetonitrile (ACN), delivered at a flow rate of 0.14 mL/min with the following gradient program: 10% B (0–1.0 min), increased to 95% B (1.0–9.0 min), and returned to 10% B (9.0–12.0 min). The injection volume was 5 μL. The retention times were approximately 4.85 min for Cur and 6.70 min for diclofenac sodium, used as the internal standard (IS).
Mass spectrometric detection was performed using an IonDrive^TM Turbo V ion (SCIEX, Framingham, MA, USA) source operating in negative electrospray ionization (ESI) mode. Quantification was conducted via multiple reaction monitoring (MRM) at m/z 367.1→133.9 for Cur, and m/z 294.1→250.0 for diclofenac sodium (IS). The assay was linear over the concentration range of 2-500 ng/mL (R^2 > 0.999). All data were acquired in triplicate (n = 3) and processed using MultiQuant software version 3.0.2 (AB SCIEX).
Pharmacokinetic parameters were calculated using non-compartmental analysis with DAS 2.0 software (Boying Corporation, Beijing, China). Data analysis was performed using GraphPad Prism 10.1.2 software. The result is expressed as mean ± standard deviation (SD). For pairwise comparisons between groups, t-tests were conducted. For multiple group comparisons, one-way analysis of variance (ANOVA) was performed, followed by Tukey’s post hoc test for multiple comparisons. Prior to ANOVA, the assumptions of normality and homogeneity of variances were verified using the Shapiro–Wilk test and Bartlett’s test, respectively. p < 0.05 indicates statistically significant differences.

[4] abbreviates: male, Sprague-Dawley, plasma, iv, 40 mg/kg Cur-equivalent.

Values joined by “and” are separate entries in the source; they are usually repeats but may differ in a detail not shown here. Equal values may be shown once.

This is an account of results in article PMC12736958 (Pharmaceutics, 2025).

As to `COc1cc(/C=C/C(=O)CC(=O)/C=C/c2ccc(O)c(OC)c2)ccc1O` [Curcumin], the logP result in data set [1] was “≈ 3”. Moreover, the solubility thermodynamic at 24 h in data set [2] is under 0.1 µg/mL.

On to `COc1cc(/C=C/C(=O)CC(=O)/C=C/c2ccc(O)c(OC)c2)ccc1O` [Solution Cur, Curcumin], for which the Cmax in data set [3] (setting [4]) was determined as 334 ± 9.6 ng/mL. The Tmax in data set [3] (setting [4]) is 6 min. Further, in data set [3] (setting [4]), the half-life is 1.8 ± 0.2 h. Besides, the MRT last in data set [3] (male, Sprague-Dawley, plasma, iv, i.v., 40 mg/kg Cur-equivalent, read-out: MRT(0–24)) turned out to be 5.2 ± 0.2 h. Also, the concentration at 0.07 h in data set [3] (male, Sprague-Dawley, plasma, iv, 40 mg/kg, i.v., 40 mg/kg, 0.07 h, Rat1-Rat5, read-out: plasma concentration of Cur, individual animals) worked out at 331 ng/mL. Besides, in data set [3] (male, Sprague-Dawley, plasma, iv, 40 mg/kg, i.v., 40 mg/kg, 0.12 h, Rat1-Rat5, read-out: plasma concentration of Cur, individual animals), the concentration at 0.12 h was found to be 261 ng/mL. Besides, the concentration at 0.17 h in data set [3] (male, Sprague-Dawley, plasma, iv, 40 mg/kg, i.v., 40 mg/kg, 0.17 h, Rat1-Rat5, read-out: plasma concentration of Cur, individual animals) was determined as 220 ng/mL. The concentration at 0.33 h in data set [3] (male, Sprague-Dawley, plasma, iv, 40 mg/kg, i.v., 40 mg/kg, 0.33 h, Rat1-Rat5, read-out: plasma concentration of Cur, individual animals) worked out at 181 ng/mL. For the same compound, the concentration at 0.5 h in data set [3] (male, Sprague-Dawley, plasma, iv, 40 mg/kg, i.v., 40 mg/kg, 0.5 h, Rat1-Rat5, read-out: plasma concentration of Cur, individual animals) was 160 ng/mL. Further, in data set [3] (male, Sprague-Dawley, plasma, iv, 40 mg/kg, i.v., 40 mg/kg, 1 h, Rat1-Rat5, read-out: plasma concentration of Cur, individual animals), the concentration at 1 h came out at 85.2 ng/mL. Moreover, the concentration at 2 h in data set [3] (male, Sprague-Dawley, plasma, iv, 40 mg/kg, i.v., 40 mg/kg, 2 h, Rat1-Rat5, read-out: plasma concentration of Cur, individual animals) stood at 50.6 ng/mL. Besides, the concentration at 4 h in data set [3] (male, Sprague-Dawley, plasma, iv, 40 mg/kg, i.v., 40 mg/kg, 4 h, Rat1-Rat5, read-out: plasma concentration of Cur, individual animals) came out at 25.9 ng/mL. Further, the concentration at 24 h in data set [3] (male, Sprague-Dawley, plasma, iv, 40 mg/kg, i.v., 40 mg/kg, 24 h, Rat1-Rat5, read-out: plasma concentration of Cur, individual animals) worked out at 8.3 ng/mL. In addition, the “plasma concentration of Cur, individual animals” value is 340.1 ng/mL and 337.1 ng/mL and 323.9 ng/mL and 342.5 ng/mL in data set [3] (i.v., 40 mg/kg, 0.07 h); 255.2 ng/mL and 257.9 ng/mL and 258.8 ng/mL and 264.3 ng/mL in data set [3] (i.v., 40 mg/kg, 0.12 h); 215.1 ng/mL and 212.7 ng/mL and 219.1 ng/mL and 237.5 ng/mL in data set [3] (i.v., 40 mg/kg, 0.17 h); 192.4 ng/mL and 207.1 ng/mL and 170.5 ng/mL and 217.7 ng/mL in data set [3] (i.v., 40 mg/kg, 0.33 h); 130.3 ng/mL and 126.5 ng/mL and 120.8 ng/mL and 194.6 ng/mL in data set [3] (i.v., 40 mg/kg, 0.5 h); 96.5 ng/mL and 101.5 ng/mL and 102.2 ng/mL and 65.3 ng/mL in data set [3] (i.v., 40 mg/kg, 1 h). For the same compound, the “plasma concentration of Cur, individual animals” value in data set [3] (i.v., 40 mg/kg, 2 h) was 63.9 ng/mL and 65.1 ng/mL and 75.3 ng/mL and 40.5 ng/mL; in data set [3] (i.v., 40 mg/kg, 4 h), 35.9 ng/mL and 25.7 ng/mL and 32.9 ng/mL and 22.5 ng/mL; in data set [3] (i.v., 40 mg/kg, 24 h), 10.2 ng/mL and 9.5 ng/mL and 8.5 ng/mL and 8.7 ng/mL.
